The values below come from patent US11951094B2, “TLR2 modulator compounds, pharmaceutical compositions and uses thereof” (Axial Therapeutics, Inc., priority 2020, dated 2024).

Structures can show the parent of a compound that is named as a salt. Bounds are passed on as bounds.

Sequence of TLR2 (O60603 21-784): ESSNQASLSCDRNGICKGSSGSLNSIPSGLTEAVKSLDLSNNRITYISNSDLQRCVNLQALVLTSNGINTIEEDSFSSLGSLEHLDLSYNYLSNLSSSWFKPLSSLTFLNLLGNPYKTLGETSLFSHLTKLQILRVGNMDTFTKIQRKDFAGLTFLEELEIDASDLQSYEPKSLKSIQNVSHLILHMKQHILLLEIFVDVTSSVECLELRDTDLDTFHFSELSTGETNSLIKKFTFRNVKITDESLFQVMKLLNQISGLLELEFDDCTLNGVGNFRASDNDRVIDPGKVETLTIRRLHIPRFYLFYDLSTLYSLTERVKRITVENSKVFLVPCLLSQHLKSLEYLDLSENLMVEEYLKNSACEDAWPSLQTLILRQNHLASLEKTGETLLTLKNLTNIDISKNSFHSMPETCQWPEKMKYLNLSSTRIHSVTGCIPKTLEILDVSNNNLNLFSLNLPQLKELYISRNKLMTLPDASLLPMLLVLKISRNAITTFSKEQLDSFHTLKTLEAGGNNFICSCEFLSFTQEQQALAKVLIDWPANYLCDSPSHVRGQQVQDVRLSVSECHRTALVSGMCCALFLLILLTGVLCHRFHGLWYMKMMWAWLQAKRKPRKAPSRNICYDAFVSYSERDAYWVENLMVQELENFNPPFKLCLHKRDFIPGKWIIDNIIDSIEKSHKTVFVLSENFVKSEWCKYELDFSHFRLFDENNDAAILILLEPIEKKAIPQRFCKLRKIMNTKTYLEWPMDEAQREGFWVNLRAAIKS

In the first test the target is TLR2 (Homo sapiens, UniProt O60603). Nature of the test: TLR2 agonist screening assay, HEK-Blue TLR2 reporter cell line (NF-kB-driven SEAP, absorbance at 600 nm). The class given is cell-based. Further details: host or cells: HEK-293 (HEK-Blue TLR2 reporter cell line). The settings on record: HEK-Blue TLR2 reporter cells, agonist mode; average of all runs (Table 3). The source says:
TLRs are a class of cell-surface receptors expressed on many different cell types that recognize conserved structural motifs present on pathogen-derived molecules. TLR2 recognizes bacteria-derived lipopeptides. […] Provided herein is an assay to identify and characterize the binding affinities of novel TLR2 agonists.
The in vitro TLR2 assay consists of a cell line that responds to TLR2 engagement by producing a factor that elicits a color change in the culture media and can be readily measured by various colorimetric detection methods. This assay enables the identification of existing and novel compounds that engage TLR2 and, by virtue of compound dilution, to approximate the binding affinity of these compounds for eliciting a TLR2 signal.
The TLR2 screening assay was developed from the HEK-Blue TLR2 reporter cell line that is commercially available from Invivogen (San Diego, CA). The reporter cell line consists of HEK-293 embryonic kidney cells that have been engineered to express TLR2 and with an NF-kB promoter driving expression of Secreted Alkaline Phosphatase (SEAP). Upon engagement of TLR2, downstream signaling results in activation of NF-kB pathway activation and secretion of SEAR In the presence of the detection reagent in the tissue culture media, SEAP mediates a color change from clear to indigo that is readily assessed by measuring absorbance at 600 nm.
HEK-Blue TLR2 reporter cells are cultured according to manufacturer's specifications until a confluence of 70-90%, at which point the cells are trypsinized, counted, and plated into 96-well plates at approximately 40,000 cells per well. Cells are cultured overnight and the TLR2 assay is performed 16-24 hours post-plating into 96 well plates.
Compounds are diluted from stocks dissolved in DMSO and a 1% DMSO final concentration is maintained in all testing wells.
The assay consists of removing the cell culture media after cells have been cultured overnight and replacing the media with HEK-Blue Detection media with TLR2 agonists at indicated dilution schemes. The Detection media contains a chemical substrate that turns from clear to indigo when acted upon by SEAP. The HEK-Blue cells are then cultured overnight in Detection media with diluted compounds. After overnight culture with agonists, each well of the plate is assayed in a plate reader at 600 nanometer absorbance.
• (1) HEK-Blue TLR2 cells are diluted in complete DME culture medium and plated into 96-well plates at 40,000 cells per well and cultured overnight. • (2) After 16-24 hours in culture, the media is removed and replaced with 200 microliters per well of HEK-Blue Detection media. • (3) TLR2 agonists are diluted 100-fold from DMSO stocks into each well, yielding a final DMSO concentration of 1% in all wells. • (3) Treated cells are cultured overnight and the following day are assayed in plate reader for Absorbance at 600 nanometer.
Following assay measurements utilizing either HEK-Blue detection or cytokine release, all data is analyzed with the GraphPad Prism8 statistical package to determine EC50, binding and activity metrics for the TLR2 modulators.
Data is generated using protocol described in Example 44.
As usually defined, the EC50 is the midpoint of the concentration-response curve. In turn, `CCCCCCCS(=O)(=O)N1CCN(C(=O)c2ccc(C(=O)N3C[C@@H](C(=O)N[C@H]4C[C@@H]4c4ccccc4)[C@H](C(=O)N[C@H]4C[C@@H]4c4ccccc4)C3)cc2)CC1C(=O)NCCCCCC` (stereo partly shown) [Compound 047] gave an EC50 of more than 1000 nM. Consider `CCCCCCNC(=O)[C@H](CCNC(=O)c1ccc(C(=O)N2C[C@@H](C(=O)N[C@H]3C[C@@H]3c3ccccc3)[C@H](C(=O)N[C@H]3C[C@@H]3c3ccccc3)C2)cc1)NC(=O)CCCCCC` [Compound 017], for which the EC50 was more than 1000 nM. `CCCCCCCCN1CCN(C(=O)c2ccc(C(=O)N3C[C@@H](C(=O)N[C@H]4C[C@@H]4c4ccccc4)[C@H](C(=O)N[C@H]4C[C@@H]4c4ccccc4)C3)cc2)C[C@@H]1C(=O)NCCCCCC` [Compound 037, (3S,4S)-1-(4-((R)-3-(hexylcarbamoyl)-4-octylpiperazine-1-carbonyl)benzoyl)-N3,N4-bis((1S,2R)-2-phenylcyclopropyl)pyrrolidine-3,4-dicarboxamide formate] had an EC50 of 51 to 350 nM.

`CCCCCCNC(=O)[C@@H]1CN(C(=O)c2ccc(C(=O)N3C[C@@H](C(=O)N[C@H]4C[C@@H]4c4ccccc4)[C@H](C(=O)N[C@H]4C[C@@H]4c4ccccc4)C3)cc2)C[C@H]1C(=O)NCCCCCC` [Compound 035]: the EC50 lay in the range of 0.1 to 50 nM. For `CCCCCCNC(=O)C1CN(C(=O)c2ccc(C(=O)N3C[C@@H](C(=O)N[C@H]4C[C@@H]4c4ccccc4)[C@H](C(=O)N[C@H]4C[C@@H]4c4ccccc4)C3)cc2)CCN1C(=O)CCC` (stereo partly drawn) [Compound 055, (3S,4S)-1-(4-(4-butyryl-3-(hexylcarbamoyl)piperazine-1-carbonyl)benzoyl)-N3,N4-bis((1S,2R)-2-phenylcyclopropyl)pyrrolidine-3,4-dicarboxamide], the EC50 was in the range of 351 to 1000 nM.

Regarding `O=C(N[C@H]1C[C@@H]1c1ccccc1)[C@@H]1CN(C(=O)c2cccc(C(=O)N3C[C@@H](C(=O)N[C@H]4C[C@@H]4c4ccccc4)[C@H](C(=O)N[C@H]4C[C@@H]4c4ccccc4)C3)c2)C[C@H]1C(=O)N[C@H]1C[C@@H]1c1ccccc1` (racemic) [Compound 001], the EC50 is more than 1000 nM.

Staying with this test, now noted: HEK-Blue TLR2 reporter cells, agonist mode; average of all runs (Table 4).
For `CCCCCCCCCCCCCCNC(=O)[C@H]1CN(Cc2ccc(C(=O)N3C[C@@H](C(=O)N[C@H]4C[C@@H]4c4ccccc4)[C@H](C(=O)N[C@H]4C[C@@H]4c4ccccc4)C3)cc2)CCN1C` [Compound 084, (3S,4S)-1-(4-(((R)-4-methyl-3-(tetradecylcarbamoyl)piperazin-1-yl)methyl)benzoyl)-N3,N4-bis((1S,2R)-2-phenylcyclopropyl) pyrrolidine-3,4-dicarboxamide], the EC50 is more than 1000 nM. On the same count and under the same terms, for `CCCCCCCCCCCCCCNC(=O)[C@H]1CN(C(=O)c2ccc(C(=O)N3C[C@@H](C(=O)N[C@H]4C[C@@H]4c4ccccc4)[C@H](C(=O)N[C@H]4C[C@@H]4c4ccccc4)C3)cc2)CCO1` [Compound 150, (3S,4S)—N3,N4-bis ((1S,2R)-2-phenylcyclopropyl)-1-(4-((R)-2-(tetradecylcarbamoyl)morpholine-4-carbonyl)benzoyl) pyrrolidine-3,4-dicarboxamide] the value was 51 to 350 nM; for `CCCCCCCCCCCCCCNC(=O)[C@@H]1CN(C(=O)c2ccc(C(=O)N3C[C@@H](C(=O)N[C@H]4C[C@@H]4c4ccccc4)[C@H](C(=O)N[C@H]4C[C@@H]4c4ccccc4)C3)cc2)CCN1C(=O)CC(C)(C)C` [Compound 253, (3S,4S)-1-(4-((S)-4-(3,3-dimethylbutanoyl)-3-(tetradecylcarbamoyl)piperazine-1-carbonyl)benzoyl)-N3,N4-bis((1S,2R)-2-phenylcyclopropyl)pyrrolidine-3,4-dicarboxamide], more than 1000 nM; for `CCCCCCCCCCCCCNC(=O)N[C@H]1CN(c2nnc(-c3ccc(C(=O)N4C[C@@H](C(=O)N[C@H]5C[C@@H]5c5ccccc5)[C@H](C(=O)N[C@H]5C[C@@H]5c5ccccc5)C4)cc3)o2)C[C@@H]1OC` [Compound 260, (3S,4S)-1-(4-(5-((3S,4S)-3-methoxy-4-(3-tridecylureido)pyrrolidin-1-yl)-1,3,4-oxadiazol-2-yl)benzoyl)-N3,N4-bis((1S,2R)-2-phenylcyclopropyl)pyrrolidine-3,4-dicarboxamide], 0.1 to 50 nM. Take `CCCCCCCCCC(=O)N[C@@H](Cc1nc(-c2ccc(C(=O)N3C[C@@H](C(=O)N[C@H]4C[C@@H]4c4ccccc4)[C@H](C(=O)N[C@H]4C[C@@H]4c4ccccc4)C3)cc2)no1)C(=O)NCCCCCC` [Compound 249, (3S,4S)-1-(4-(5-((S)-2-decanamido-3-(hexylamino)-3-oxopropyl)-1,2,4-oxadiazol-3-yl)benzoyl)-N3,N4-bis((1S,2R)-2-phenylcyclopropyl)pyrrolidine-3,4-dicarboxamide]: the EC50 is more than 1000 nM. Still for that read-out and setting: for `CCCCCCCCCCCCNC(=O)N[C@H]1CN(C(c2ccc(C(=O)N3C[C@@H](C(=O)N[C@H]4C[C@@H]4c4ccccc4)[C@H](C(=O)N[C@H]4C[C@@H]4c4ccccc4)C3)cc2)C(F)(F)F)C[C@@H]1OC` (single isomer, unassigned) [Compound 232, (3S,4S)-1-(4-((R*)-1-((3S,4S)-3-(3-dodecylureido)-4-methoxypyrrolidin-1-yl)-2,2,2-trifluoroethyl)benzoyl)-N3,N4-bis((1S,2R)-2-phenylcyclopropyl)pyrrolidine-3,4-dicarboxamide] the value was 0.1 to 50 nM; for `CCCCCCCCCCCCCCNC(=O)[C@@H]1CN(C(=O)c2ccc(C(=O)N3C[C@@H](C(=O)N[C@H]4C[C@@H]4c4ccccc4)[C@H](C(=O)N[C@H]4C[C@@H]4c4ccccc4)C3)cc2)C[C@H]1N(C)C` [Compound 091, (3S,4S)-1-(4-((3S,4R)-3-(dimethylamino)-4-(tetradecylcarbamoyl)pyrrolidine-1-carbonyl)benzoyl)-N3,N4-bis((1S,2R)-2-phenylcyclopropyl)pyrrolidine-3,4-dicarboxamide], more than 1000 nM. In turn, `CCCCCCCCCCCCCCNC(=O)[C@@H]1CN(C(=O)c2cccc(C(=O)N3C[C@@H](C(=O)N[C@H]4C[C@@H]4c4ccccc4)[C@H](C(=O)N[C@H]4C[C@@H]4c4ccccc4)C3)c2)CCN1C(C)=O` [Compound 164, (3S,4S)-1-(3-((S)-4-acetyl-3-(tetradecylcarbamoyl)piperazine-1-carbonyl)benzoyl)-N3,N4-bis ((1S,2R)-2-phenylcyclopropyl) pyrrolidine-3,4-dicarboxamide] displayed an EC50 of more than 1000 nM. The same measure, in the same setting: the value for `CCCCCCC(=O)N[C@@H](CNC(=O)c1ccc(C(=O)N2C[C@@H](C(=O)N[C@H]3C[C@@H]3c3ccccc3)[C@H](C(=O)N[C@H]3C[C@@H]3c3ccccc3)C2)cc1)C(=O)NCc1ccc(F)cc1` [Compound 128, (3S,4S)-1-(4-(((S)-3-((4-fluorobenzyl)amino)-2-heptanamido-3-oxopropyl)carbamoyl)benzoyl)-N3,N4-bis((1S,2R)-2-phenylcyclopropyl)pyrrolidine-3,4-dicarboxamide] was more than 1000 nM; that for `CCCCCCNC(=O)[C@H]1CN(C(c2ccc(C(=O)N3C[C@@H](C(=O)N[C@H]4C[C@@H]4c4ccccc4)[C@H](C(=O)N[C@H]4C[C@@H]4c4ccccc4)C3)cc2)C(F)(F)F)CCN1C(=O)CCCCCC` (stereo partly drawn) [Compound 158, (3S,4S)—N3,N4-bis((1S,2R)-2-phenylcyclopropyl)-1-(4-(2,2,2-trifluoro-1-((R)-4-heptanoyl-3-(hexylcarbamoyl)piperazin-1-yl)ethyl)benzoyl)pyrrolidine-3,4-dicarboxamide] was more than 1000 nM.
